Read-outs that look alike come from different tables or passages of the source.
Experiments:
[1] = biological target: T1, MMP-2 (Homo sapiens, UniProt P08253); assay: MMP enzymatic assay (Trupoint peptide), MMP-2; format: biochemical
T1 construct: Human MMP-2 full length (aa 1-660)
T1 sequence (P08253 30-660): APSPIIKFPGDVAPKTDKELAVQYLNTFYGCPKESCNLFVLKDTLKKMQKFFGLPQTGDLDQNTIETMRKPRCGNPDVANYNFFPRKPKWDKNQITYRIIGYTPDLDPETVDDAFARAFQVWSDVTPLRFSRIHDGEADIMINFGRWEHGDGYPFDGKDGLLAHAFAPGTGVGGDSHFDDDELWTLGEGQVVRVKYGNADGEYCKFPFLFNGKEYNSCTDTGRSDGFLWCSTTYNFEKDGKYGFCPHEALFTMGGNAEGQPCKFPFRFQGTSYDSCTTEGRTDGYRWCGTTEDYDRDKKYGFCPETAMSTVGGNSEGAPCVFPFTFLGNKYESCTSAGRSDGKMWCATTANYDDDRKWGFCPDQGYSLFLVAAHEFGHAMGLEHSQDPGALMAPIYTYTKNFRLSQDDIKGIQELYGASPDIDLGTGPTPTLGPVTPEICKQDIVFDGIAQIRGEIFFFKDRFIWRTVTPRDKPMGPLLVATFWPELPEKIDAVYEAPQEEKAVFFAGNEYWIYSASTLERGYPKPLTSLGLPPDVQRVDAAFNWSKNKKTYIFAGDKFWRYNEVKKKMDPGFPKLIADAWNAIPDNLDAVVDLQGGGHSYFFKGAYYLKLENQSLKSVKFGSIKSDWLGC
Protocol: [formula] • 1) Prepare appropriate 1×MMP assay buffer from 10× stock. […] Need to prepare a 2.5× concentration stock (2.5 μM) to achieve this concentration in 50 μl. Dilute compound to 2.5 mM in 100% DMSO (a 1:40 dilution), then dilute the 2.5 mM compound to 2.5 μM (1:1000) into 1× assay buffer. Make 1 ml 2.5 μM compound in assay buffer. • 4) Fill the rows B through P of a 384-well plate with assay buffer+0.1% DMSO. • 5) Add 30 ul of the 2.5 μM compound in assay buffer to the top row of the plate, doing each compound in triplicate. The plate setup should be as follows, using GM6001 as plate reference compound:
• 6) Serially dilute 10 μl down the plate to achieve 1:3 dilutions in subsequent wells. After each dilution, change pipette tips to avoid compound carryover. Discard the remaining 10 μl after diluting into the final row. • 7) Prepare enzyme dilutions at 2.5× of final desired concentration (see below). Will need 10 ml enzyme solution per plate. Add enzyme to plate, 20 μl per well. Incubate 1 hr.
• 8) Dilute the 500 μM Trupoint peptide 1:1000 into assay buffer to achieve a 5× working stock of 500 nM. Prepare 5 ml total per plate. Add 10 ul of substrate to each well to achieve a final concentration of 100 nM in well. Also prepare background subtraction wells by adding 10 μl 5× substrate to 40 μl assay buffer per well, typically do ˜32 wells. • 9) Incubate assay at room temperature for 15 min. Read in plate reader.
(§1) Analysis Specifications • Calculate average background value from substrate/assay buffer wells • Subtract this from entire plate • Calculate average of DMSO wells for each enzyme. This is the positive control, 100% value. • For each well, calculate percent of control by dividing well value by the average DMSO value obtained above. • Paste percent of control values into Graphpad Prism 4.0.

[2] = biological target: T2, MMP-9 (Homo sapiens, UniProt P14780); assay: MMP enzymatic assay (Trupoint peptide), MMP-9; format: biochemical
T2 construct: Human MMP-9 catalytic domain (aa 107-446)
Protocol: [formula] • 1) Prepare appropriate 1×MMP assay buffer from 10× stock. […] The plate setup should be as follows, using GM6001 as plate reference compound:
• 6) Serially dilute 10 μl down the plate to achieve 1:3 dilutions in subsequent wells. After each dilution, change pipette tips to avoid compound carryover. […] Will need 10 ml enzyme solution per plate. Add enzyme to plate, 20 μl per well. Incubate 1 hr.
Prepare 5 ml total per plate. Add 10 ul of substrate to each well to achieve a final concentration of 100 nM in well. […] Read in plate reader.
as §1

T2 sequence (P14780 107-446): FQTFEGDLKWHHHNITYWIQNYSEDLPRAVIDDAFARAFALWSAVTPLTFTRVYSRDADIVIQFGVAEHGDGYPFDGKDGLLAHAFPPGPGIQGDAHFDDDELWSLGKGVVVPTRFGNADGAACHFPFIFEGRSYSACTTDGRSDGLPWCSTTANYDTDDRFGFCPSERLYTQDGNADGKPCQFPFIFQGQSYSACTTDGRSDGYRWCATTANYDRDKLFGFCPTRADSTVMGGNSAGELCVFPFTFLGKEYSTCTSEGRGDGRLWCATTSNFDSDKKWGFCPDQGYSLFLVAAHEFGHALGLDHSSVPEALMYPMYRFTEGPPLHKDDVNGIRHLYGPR

| Compound | IC50 [1] | IC50 [2] | IC50 ([1]; read-out: MMP-2 nM IC50) |
| --- | --- | --- | --- |
| O=c1c(COc2ccc(-c3ccc(Br)cc3)cc2)cccn1O [Compound 41, 3-(4′-Bromo-biphenyl-4-yloxymethyl)-1-hydroxy-1H-pyridin-2-one] | > 10000 nM | 7140 nM |  |
| COc1ccc(Oc2ccc(N(Cc3cccn(O)c3=O)S(C)(=O)=O)cc2)cc1 [Compound 53, N-(1-Hydroxy-2-oxo-1,2-dihydro-pyridin-3-ylmethyl)-N-[4-(4-methoxy-phenoxy)-phenyl]-methanesulfonamide] | 184 nM | 14.7 nM |  |
| COc1ccc(Oc2ccc(S(=O)(=O)C3CCCN(O)C3=O)cc2)cc1 (stereo not shown) [Compound 72, 1-Hydroxy-3-[4-(4-methoxy-phenoxy)-benzenesulfonyl]-piperidin-2-one] |  | 87.9 nM | 167 nM |
| Cc1ccc(Oc2ccc(S(=O)(=O)Nc3cccn(O)c3=O)cc2)cc1 [Compound 38] | 49.8 nM | 64.6 nM |  |
| COc1ccc(Oc2ccc(S(=O)(=O)C3CCCCN(O)C3=O)cc2)cc1 (stereo not shown) [Compound 70, 1-Hydroxy-3-[4-(4-methoxy-phenoxy)-benzenesulfonyl]-azepan-2-one] |  | 31 nM | 95.9 nM |
| O=C1[C@H](N(CCN2CCOCC2)S(=O)(=O)c2ccc(Br)s2)CC=CCN1O [Compound 18, (R)-5-Bromo-thiophene-2-sulfonic acid (1-hydroxy-2-oxo-2,3,4,7-tetrahydro-1H-azepin-3-yl)-(2-morpholin-4-yl-ethyl)-amide] | 48.1 nM | 14.3 nM |  |
| O=S(=O)(c1ccc(Oc2ccccc2)cc1)N(Cc1ccccc1)c1cccn(O)c1=S [Compound 23, N-Benzyl-N-(1-hydroxy-2-thioxo-1,2-dihydro-pyridin-3-yl)-4-phenoxy-benzene-sulfonamide] |  | 693 nM | 4590 nM |
| O=C1C(S(=O)(=O)c2ccc(-c3ccccc3)cc2)CCCCN1O (stereo not shown) [Compound 83, 3-(Biphenyl-4-sulfonyl)-1-hydroxy-azepan-2-one] | > 1000 nM | > 1000 nM |  |
| O=C1C(S(=O)(=O)c2ccc(F)cc2)CCCCN1O (stereo not shown) [Compound 79, 3-(4-Fluoro-benzenesulfonyl)-1-hydroxy-azepan-2-one] | > 1000 nM | > 1000 nM |  |
| O=C1C(S(=O)(=O)c2ccc(-c3nc4cc(C(F)(F)F)ccc4[nH]3)cc2)CCCCN1O (stereo not shown) [Compound 74, 1-Hydroxy-3-[4-(5-trifluoromethyl-1H-benzoimidazol-2-yl)-benzenesulfonyl]-azepan-2-one] | > 1000 nM | > 1000 nM |  |
| CN1CCN(CCN([C@@H]2CC=CCN(O)C2=O)S(=O)(=O)c2ccc(Oc3ccc(Cl)cc3)cc2)CC1 [Compound 14, 4-(4-Chloro-phenoxy)-N-(1-hydroxy-2-oxo-2,3,4,7-tetrahydro-1H-azepin-3-(R)-yl)-N-[2-(4-methyl-piperazin-1-yl)-ethyl]-benzenesulfonamide] | 0.49 nM | 0.2 nM |  |
| Cc1ccc(N(C)S(=O)(=O)c2ccc(Oc3ccc(Cl)cc3)cc2)c(=O)n1O [Compound 33, 4-(4-Chloro-phenoxy)-N-(1-hydroxy-6-methyl-2-oxo-1,2-dihydro-pyridin-3-yl)-N-methyl-benzenesulfonamide] |  | 34.9 nM | 66.4 nM |
| CN(c1cccn(O)c1=O)S(=O)(=O)c1ccc(Oc2ccc(Cl)cc2)cc1 [Compound 28, 4-(4-Chloro-phenoxy)-N-(1-hydroxy-2-oxo-1,2-dihydro-pyridin-3-yl)-N-methyl-benzenesulfonamide] | 6.9 nM | 3.28 nM |  |
| Cc1ccc(C#Cc2ccc(N(Cc3cccn(O)c3=O)S(C)(=O)=O)cc2)cc1 [Compound 55, N-(1-Hydroxy-2-oxo-1,2-dihydro-pyridin-3-ylmethyl)-N-(4-p-tolylethynyl-phenyl)-methanesulfonamide] | > 10000 nM | > 10000 nM |  |
| COc1ccc(Oc2ccc(S(=O)(=O)N(C)c3cccn(O)c3=O)cc2)cc1 [Compound 29, N-(1-Hydroxy-2-oxo-1,2-dihydro-pyridin-3-yl)-4-(4-methoxy-phenoxy)-N-methyl-benzenesulfonamide] |  | 0.87 nM | 5.6 nM |
| CN(c1cccn(O)c1=O)S(=O)(=O)c1ccc(-c2ccc(Cl)cc2)cc1 [Compound 36, 4′-Chloro-biphenyl-4-sulfonic acid (1-hydroxy-2-oxo-1,2-dihydro-pyridin-3-yl)-methyl-amide] | 1300 nM | 1800 nM |  |
| CN1CCCN(O)C(=O)[C@@H]1CN(c1ccc(Oc2ccc(C(F)(F)F)cc2)cc1)S(C)(=O)=O [Compound 68, (3S)-1-Hydroxy-3-{N-methanesulfonyl-N-[4-(4-trifluoromethylphenoxy)-phenyl]amino}methyl-4-methyl-1,4-diazepan-2-one] | 1250 nM | 406 nM |  |
| Cc1ccc(S(=O)(=O)Cn2cccc(O)c2=O)cc1 [Compound 60, 3-Hydroxy-1-(toluene-4-sulfonylmethyl)-1H-pyridin-2-one] |  | 1070 nM | 468 nM |
| Cc1ccc(C#Cc2ccc(S(=O)(=O)N(CCN3CCOCC3)C3CC=CCN(O)C3=O)s2)cc1 (stereo not shown) [Compound 91] | 2.2 nM | 0.6 nM |  |
| O=C1C(CS(=O)(=O)c2ccc(Oc3ccccc3)cc2)NCCCN1O (stereo not shown) [Compound 94] | 36.8 nM | 21.1 nM |  |
| O=C1C(S(=O)(=O)c2ccc(-c3ccc(F)cc3)cc2)CCCCN1O (stereo not shown) [Compound 95] | 584 nM | 1190 nM |  |
| O=C1[C@H](NS(=O)(=O)c2ccc(Oc3ccc(C(F)(F)F)cc3)cc2)CC=CCN1O [Compound 5, N-(1-Hydroxy-2-oxo-2,3,4,7-tetrahydro-H-azepin-3-(R)-yl)-4-(4-trifluoro-methyl-phenoxy)-benzenesulfonamide] | 1.79 nM | 2.04 nM |  |
| O=c1c(O)cccn1CS(=O)(=O)c1ccc(Br)cc1 [Compound 65, 1-(4-Bromo-benzenesulfonylmethyl)-3-hydroxy-1H-pyridin-2-one] | > 1000 nM | > 1000 nM |  |
| N-(1-Hydroxy-2-oxo-1,2-dihydro-pyridin-3-yl)-N-methyl-4-p-tolyloxy-benzene-sulfonamide [Compound 26] |  | 3.4 nM | 6.1 nM |
| O=C1[C@H](NS(=O)(=O)c2ccc(Oc3ccccn3)cc2)CC=CCN1O [Compound 8, N-(1-Hydroxy-2-oxo-2,3,4,7-tetrahydro-1H-azepin-3-(R)-yl)-4-(pyridin-2-yloxy)-benzenesulfonamide] | 15.1 nM | 22.9 nM |  |
| O=c1c(NS(=O)(=O)c2ccc(Oc3ccc(Cl)cc3)cc2)cccn1O [Compound 37, 4-(4-Chloro-phenoxy)-N-(1-hydroxy-2-oxo-1,2-dihydro-pyridin-3-yl)-benzene-sulfonamide] |  | 316 nM | 242 nM |
| CN([C@@H]1CC=CCN(O)C1=O)S(=O)(=O)c1ccc(Oc2ccc(Cl)cc2)cc1 [Compound 12, 4-(4-Chloro-phenoxy)-N-(1-hydroxy-2-oxo-2,3,4,7-tetrahydro-1H-azepin-3-(R)-yl)-N-methyl-benzenesulfonamide] | 1.99 nM | 1.32 nM |  |
| 4-(4-Chloro-phenoxy)-N-(1-hydroxy-2-oxo-2,3,4,7-tetrahydro-1H-azepin-3-(R)-yl)-benzenesulfonamide [Compound 1] |  | 0.78 nM | 0.81 nM |
| Cc1ccc2[nH]c(-c3ccc(S(=O)(=O)C4CCCCN(O)C4=O)cc3)nc2c1 (stereo not shown) [Compound 75, 1-Hydroxy-3-[4-(5-methyl-1H-benzoimidazol-2-yl)-benzenesulfonyl]-azepan-2-one] | > 1000 nM | > 1000 nM |  |

Source: patent US7803793B2, “Heterocyclic derived metalloprotease inhibitors” (Janssen Pharmaceutica NV, priority 2006, dated 2010)
